Results published in article PMC10457970, “HIV-1 Integrase Inhibition Activity by Spiroketals Derived from Plagius flosculosus, an Endemic Plant of Sardinia (Italy) and Corsica (France)” (Pharmaceuticals, 2023).
Where “and” joins values, the source holds several entries; their conditions need not be identical. Identical values can stand only once.

Legend:
[1] = Compound UV–VIS spectra in the presence of MgCl2 (chelation); type: physicochemical; conditions: 6 mM MgCl2, UV–VIS 250–600 nm
Procedure: The ability of compounds to chelate the MgCl2 was measured using 15% ethanol and 15 mM Tris HCl pH 7.8 (in 1 mL of volume). The UV–VIS spectrum was recorded, before and after the addition of 6 mM MgCl2, from 250 nm to 600 nm.

[2] = system: HIV-1 wild-type reference strain NL4-3; assay: Anti-HIV-1 activity in TZM-bl cell line; type: cell-based; conditions: 48 h
Procedure: The antiviral activity of the investigated compound was evaluated by measuring the IC50 values against the HIV-1 wild-type reference strain NL4-3 in a TZM-bl cell line-based phenotypic assay, as previously published. Briefly, 15,000 cells/well were infected with the wild-type NL4-3 strain at multiplicity of infection (MOI) of 0.1 in the presence of serial diluitions of the drug in a 96-well plate format. […] Each compound was tested in duplicate and tested in two independent experiments. After 48 h, the cells were detached with the Glo-Lysis buffer (Promega, Madison, WI, USA), and the Bright-Glo Luciferase reagent (Promega) was added to each well as indicated by the manufacturer. Finally, the relative luminescence units were measured using the GloMax Discover instrument (Promega) as previously described and processed with GraphPad software to calculate half-maximal inhibitory concentration (IC50) values.

[3] = Cytotoxicity, CellTiter-Glo 2.0; type: cell-based; conditions: human, TZM-bl cells
Procedure: (§1) Cytotoxicity was determined by the CellTiter-Glo 2.0 Luminescent Cell Viability Assay (Promega) according to the manufacturer’s protocol. Briefly, 15,000 cells/well of Tzm-bl were exposed to serial diluition of the drug and after 48 h, cell viability was calculated by measuring cellular ATP through a luciferase-based chemical reaction. The luminescent signal obtained from cells treated with serial dilution of the tested compounds, or the control (DMSO), was measured using the GloMax® Discover Multimode Microplate Reader (Promega) and processed with GraphPad PRISM software to calculate the half-maximal cytotoxic concentration (CC50). The DMSO curve, used as a control, was added in each plate and SPK-3 was tested in duplicate. The non-toxic dose corresponding to 90–100% cell viability was used as the maximum concentration in the antiviral assays.

[4] = target: T1, HIV-1 RT-associated RNase H (Human immunodeficiency virus type 1 group M subtype B, UniProt P04585); assay: RT-associated RNase H assay; type: biochemical; conditions: pure compounds; mean ± SD of three independent experiments
T1 construct: His-tagged p66/p51 HIV-1 RT was expressed in E. coli strain M15; His; made in house; host or cells: Escherichia coli M15
Procedure: (§2) Recombinant 6xHis IN protein, FLAG-IN, His-LEDGF and FLAG-LEDGF were expressed in Escherichia coli strain BL21 (DE3) and purified as previously described. His-tagged p66/p51 HIV-1 RT was expressed in E. coli strain M15 and purified as previously described.
The HIV-1 RNase H activity was determined as described by Esposito et al.. Briefly, 100 µL of volume of reaction containing 50 mM Tris HCl pH 7.8, 6 mM MgCl2, 1 mM DTT, 80 mM KCl, hybrid RNA/DNA (5′-[…]-3′-Fluorescein, 5′-[…]-3′-Dabcyl), and 3.8 nM RT was incubated for 1 h at 37 °C. The reaction was stopped by the addition of EDTA and measured with a plate reader at 490/528 nm.

[5] = target: T2, HIV-1 IN in the presence of LEDGF/p75 cellular cofactor (Human immunodeficiency virus type 1 group M subtype B, UniProt P04585); assay: HTRF LEDGF-dependent HIV-1 IN activity assay; type: biochemical; conditions: pure compounds; mean ± SD of three independent experiments
T2 construct: Recombinant 6xHis IN protein, FLAG-IN, His-LEDGF and FLAG-LEDGF were expressed in Escherichia coli strain BL21 (DE3); made in house; host or cells: Escherichia coli BL21 (DE3)
Procedure: as §2
(§3) The evalaution of 3′-processing and strand-transfer IN reactions in the presence or in the absence of recombinant LEDGF/p75 cellular cofactor were performed as described previously. Briefly, recombinant IN was pre-incubated for 1 h at room temperature, in a buffer containing 20 mM HEPES pH 7.5, 1 mM DTT, 1% Glycerol, 20 mM MgCl2, 0.05% Brij-35 and 0.1 mg/mL BSA and increasing concentrations of the tested compounds.
(§4) Then, 9 nM Biotin3′-DNA donor substrate 50 nM 5′-Cy5-DNA acceptor substrate and 50 nM LEDGF/p75 protein (when required) were added to this reaction and incubated at 37 °C for 90 min.

[6] = target: HIV-1 IN–LEDGF interaction (Human immunodeficiency virus type 1 group M subtype B, UniProt P04585); assay: biochemical; type: binding
Procedure: Recombinant His-IN was pre-incubated for 30 min at room temperature in the presence of the tested compounds in a mixture reaction composed of 150 mM NaCl, 2 mM MgCl2, 0.1% Nonidet P-40, 1 mg/mL BSA, and 25 mM Tris pH 7.4 [12, 48]. After this time, FLAG-LEDGF was added and the mixture was incubated for 30 min at room temperature. A mixture of two specific antibodies (anti-His6-XL665 and anti-FLAG-EuCryptate) was then added to the reaction and incubated for 4 h at 4 °C.

[7] = target: HIV-1 IN–IN subunit exchange (Human immunodeficiency virus type 1 group M subtype B, UniProt P04585); assay: biochemical; type: binding
Procedure: (§5) This IN–IN binding assay allows the verification of higher-order, aberrant IN multimerization or IN–IN subunit exchange. Briefly, His and FLAG-tagged IN enzymes were added in a buffer containing 25 mM Tris pH 7.4, 150 mM NaCl, 2 mM MgCl2, 0.1% Nonidet P-40, and 1 mg/mL BSA [12, 48] with different concentrations of compounds, and incubated for 2.5 h at room temperature. After this time, a mixture of two specific antibodies (anti-His6-XL665 and anti-FLAG-EuCryptate) was added to the reaction and incubated at room temperature for 3 h. The HTRF signal was recorded as described in the previous paragraph.
(§6) The analysis of the signal in order to evaluate the aberrant IN multimerization and interference with the IN–IN subunit exchange or functional IN–IN interactions was performed as described above.

[8] = system: T3, HIV-1 IN multimerization; type: binding; conditions: concentration for 50% of the multimerization increase
T3 construct: His and FLAG-tagged IN enzymes were added in a buffer containing 25 mM Tris pH 7.4; made in house; host or cells: Escherichia coli BL21 (DE3)
Procedure: as §5, §6

[9] = system: TZM-bl cells; assay: Cytotoxicity, CellTiter-Glo 2.0; type: cell-based; conditions: 48 h
Procedure: as §1

[10] = target: T4, HIV-1 IN in the absence of LEDGF (Human immunodeficiency virus type 1 group M subtype B, UniProt P04585); assay: biochemical; type: biochemical
T4 construct: Recombinant 6xHis IN protein, FLAG-IN, His-LEDGF and FLAG-LEDGF were expressed in Escherichia coli strain BL21 (DE3); made in house; host or cells: Escherichia coli BL21 (DE3)
Procedure: as §2, §3, §4

Row | Compound | shift in the maximum of absorbance in the presence of Mg2+ [1] [nm] | CC50 at 48 h [3] [µM] | IC50 [4] [µM] | IC50 [5] [µM] | also measured
1 | CCOC(=O)C(=O)CC(=O)/C=C/c1cccn1Cc1ccc(F)cc1 [RDS1643, reference compound] | 16 |  |  |  | 
2 | Cc1nnc(C(=O)NC(C)(C)c2nc(C(=O)NCc3ccc(F)cc3)c(O)c(=O)n2C)o1 [Raltegravir, reference compound] |  | > 100 |  |  | EC50 ([2]; Human immunodeficiency virus 1, NL43, TZM-bl, read-out: EC50 inhibiting HIV-1 viral replication): 0.0087 µM
3 | CC#CC#C/C=C1\C=CC2(CCCO2)O1 (stereo not shown) [SPK1, tonghaosu] | 3.5 |  | 10 ± 5.4 | 1.69 ± 0.38 | 
4 | CC#CC#C/C=C1\C=CC2(OC=CC2OC(C)=O)O1 (stereo not shown) [SPK2] | 4.5 |  | 20 ± 6.1 | 14.7 ± 0.3 | 
5 | CC#CC#C/C=C1/O[C@@]2(OC=C[C@H]2OC(C)=O)[C@@H](O)[C@@H]1Cl [SPK3, flosculin A] | 3 | 50 | 3.6 ± 0.6 | 1.46 ± 0.16 | IN–LEDGF Binding IC50 [6]: did not inhibit; IC50 ([6]; read-out: IN–LEDGF Binding IC50): > 100 µM; IC50 [7]: > 100 µM; IN–IN Subunit Exchange IC50 [7]: without any effect; EC50 inhibiting HIV-1 viral replication ([2]; NL4-3, TZM-bl, two independent experiments): did not inhibit; IN Multimerization MI50 [8]: 1 µM and 1.00 ± 0.01 µM; CC50 [9]: 50.1 ± 4.3 µM; IC50 ([10]; absence of LEDGF, read-out: LEDGF-Independent IN Activity IC50): 27.3 ± 2.3 µM; decrease in potency on HIV-1 IN in the absence vs presence of LEDGF/p75 ([10]; ratio LEDGF-independent / LEDGF-dependent IC50): 18.7 fold
